Measured values from US11484539B2, “Compounds and their uses for alleviating menopause-associated symptoms” (Estetra SPRL, priority 2018, dated 2022).

Test system: post-menopausal women
Assay: Weekly frequency of moderate to severe VMS, dose-finding study
Type: in vivo
Conditions: for Difference with placebo, LS adjusted mean, absolute change in weekly frequency of moderate to severe VMS / Difference with placebo, LS adjusted mean, relative change in weekly frequency of moderate to severe VMS: 15 mg E4 vs placebo; for Differences with placebo (including ineffective doses 2.5 mg and 5 mg), relative change in weekly frequency of moderate to severe VMS, LS adjusted mean / Differences with placebo (including ineffective doses 2.5 mg and 5 mg), relative change in weekly frequency of moderate to severe VMS, p_value: 15.0 mg vs 0 mg; for Relative change in weekly frequency of moderate to severe VMS, LS adjusted mean: analysis with placebo grouped with 2.5 and 5 mg; for Covariate significance, covariate trt1, p_value, relative change in weekly frequency of moderate to severe VMS: 10 mg, 15 mg vs placebo grouped with 2.5 and 5 mg
Source text: To determine the Minimum Effective Dose (MED), firstly the selection criteria required that patients presented at least 7 moderate to severe VMS/day or at least 50 moderate to severe VMS/week in the week preceding randomization. Secondly, a placebo group was included in a double-blind fashion. Thirdly, the total patient number was such that statistical significance could be obtained between separate arms of the study. Fourthly, the absolute change from baseline in weekly frequency of moderate to severe VMS was taken into account. An analysis of covariance (ANCOVA) was performed based on the untransformed change in weekly frequency of moderate to severe VMS from baseline. Finally, the change in severity from baseline was evaluated. For this, the Severity Scoring System of VMS was documented by the subjects as follows: • a score of Mild (1) for a sensation of heat without sweating; • a score of Moderate (2) for a sensation of heat with sweating/the subject is able to continue activity; and • a score of Severe (3) for a sensation of heat with sweating/which causes cessation of activity.
Enrolment was approximately 18 months. Individual subject participation was up to 27 weeks: up to 6 weeks pre-screening and washout, up to 4 weeks screening and run-in period, up to 91 days (13 weeks) of E4/placebo treatment followed by 2 weeks (14 days) of progestin therapy and a Follow up visit 1 week after completion of progestin therapy in non-hysterectomised subjects only.
To define the minimum effective dose (MED) of the oral dose of E4 by evaluating changes in frequency and in severity of moderate to severe vasomotor symptoms (VMS).
This was a prospective, multicentre, randomised, placebo-controlled, double-blinded, dose-finding study.
Eligible subjects were hysterectomised and non-hysterectomised post-menopausal women aged 40 to 65 years, inclusive, presenting at least 7 moderate to severe hot flushes/day or at least 50 moderate to severe hot flushes/week.
The subjects have met all of the following inclusion criteria at the randomization visit. These criteria were assessed during the screening period: • 1. Women aged 40 to 65 years, inclusive, presenting at least 7 moderate to severe hot flushes/day or at least 50 moderate to severe hot flushes/week in the week preceding randomization. • 2. Body Mass Index (BMI) between 18.0 and 35.0 kg/m^2, inclusive. • 3. Post-menopausal status defined as levels of follicle stimulating hormone (FSH) >40 IU/L and: • amenorrhoea for at least 12 consecutive months or, • amenorrhoea for at least 6 months with estradiol (E2)<20 pg/mL or, • at least 6 weeks post-surgical bilateral oophorectomy with or without hysterectomy with a copy of the pathology report or a statement on letterhead from the subject's physician documenting both ovaries were removed is required. • 4. For non-hysterectomised women: intact uterus with bi-layer endometrial thickness […] on TVUS. • 5. Negative pregnancy test. • 6. Good physical and mental health, in the judgement of the Principal Investigator (PI), on the basis of medical, surgical and gynaecological history, physical examination, gynaecological examination, clinical laboratory, and vital signs. • 7. Subject has provided signed and dated written informed consent before admission to the study. • 8. Subject is able to understand and comply with the protocol requirements, instructions, and protocol-stated restrictions. Exclusion Criteria:
All treatments (Estetrol, hereinafter, E4, [2.5 mg, 5 mg, 10 mg, 15 mg] capsule) were administered once daily (QD) per os for at least 12 consecutive weeks until the last biological assessments (Day 91 maximum) had been performed.
In order to analyse the data recorded in this study, treatment groups have been compared using an ANCOVA (analysis of covariance) with respect to the change in weekly frequency of moderate to severe VMS from baseline to weeks 4 and 12. […]

[1] = week 4, ANCOVA with study centre
[2] = week 12, ANCOVA with study centre

C[C@]12CC[C@@H]3c4ccc(O)cc4CC[C@H]3[C@@H]1[C@@H](O)[C@@H](O)[C@@H]2O [E4, 1,3,5 (10)-estratrien-3,15alpha,16alpha,17beta-tetrol]
Mean change from baseline in weekly frequency of moderate to severe VMS (15 mg E4 QD per os, week 4): −41.43
Relative change (% from baseline) in weekly frequency of moderate to severe VMS, mean (15 mg E4 QD per os, week 4): −67%
Mean change from baseline in weekly frequency of moderate to severe VMS (15 mg E4 QD per os, week 5): −44.34
Relative change (% from baseline) in weekly frequency of moderate to severe VMS, mean (15 mg E4 QD per os, week 5): −72%
Mean change from baseline in weekly frequency of moderate to severe VMS (15 mg E4 QD per os, week 6): −46.58
Relative change (% from baseline) in weekly frequency of moderate to severe VMS, mean (15 mg E4 QD per os, week 6): −76%
Mean change from baseline in weekly frequency of moderate to severe VMS (15 mg E4 QD per os, week 7): −48.51
Relative change (% from baseline) in weekly frequency of moderate to severe VMS, mean (15 mg E4 QD per os, week 7): −79%
Mean change from baseline in weekly frequency of moderate to severe VMS (15 mg E4 QD per os, week 8): −48.35
Relative change (% from baseline) in weekly frequency of moderate to severe VMS, mean (15 mg E4 QD per os, week 8): −79%
Mean change from baseline in weekly frequency of moderate to severe VMS (15 mg E4 QD per os, week 9): −49.62
Relative change (% from baseline) in weekly frequency of moderate to severe VMS, mean (15 mg E4 QD per os, week 9): −81%
Mean change from baseline in weekly frequency of moderate to severe VMS (15 mg E4 QD per os, week 10): −48.88
Relative change (% from baseline) in weekly frequency of moderate to severe VMS, mean (15 mg E4 QD per os, week 10): −80%
Mean change from baseline in weekly frequency of moderate to severe VMS (15 mg E4 QD per os, week 11): −49.92
Relative change (% from baseline) in weekly frequency of moderate to severe VMS, mean (15 mg E4 QD per os, week 11): −82%
Mean change from baseline in weekly frequency of moderate to severe VMS (15 mg E4 QD per os, week 12): −50.94
Relative change (% from baseline) in weekly frequency of moderate to severe VMS, mean (15 mg E4 QD per os, week 12): −84%
Difference with placebo, LS adjusted mean, absolute change in weekly frequency of moderate to severe VMS [1]: −9.804
Difference with placebo, LS adjusted mean, relative change in weekly frequency of moderate to severe VMS [1]: −0.1564
Difference with placebo, LS adjusted mean, absolute change in weekly frequency of moderate to severe VMS (week 4, without site effect): −10.71
Difference with placebo, LS adjusted mean, relative change in weekly frequency of moderate to severe VMS (week 4, without site effect): −0.1703
Difference with placebo, LS adjusted mean, absolute change in weekly frequency of moderate to severe VMS [2]: −10.09
Difference with placebo, LS adjusted mean, relative change in weekly frequency of moderate to severe VMS [2]: −0.1585
Difference with placebo, LS adjusted mean, absolute change in weekly frequency of moderate to severe VMS (week 12, without site effect): −10.98
Difference with placebo, LS adjusted mean, relative change in weekly frequency of moderate to severe VMS (week 12, without site effect): −0.1723
Reduction in the frequency of moderate to severe VMS when compared to baseline (15 mg daily dose): over 80%
Responders: patients showing a response of 50% or more (relative change from baseline in weekly frequency of moderate to severe VMS) (15 mg daily dose, week 12): 91.8%
Responders: patients showing a response of 75% or more (weekly frequency of moderate to severe VMS) (15 mg daily dose, week 12): 77.6%
Differences with placebo (including ineffective doses 2.5 mg and 5 mg), relative change in weekly frequency of moderate to severe VMS, LS adjusted mean (week 4): −0.1797
Differences with placebo (including ineffective doses 2.5 mg and 5 mg), relative change in weekly frequency of moderate to severe VMS, p_value (week 4): 0.00218
Differences with placebo (including ineffective doses 2.5 mg and 5 mg), relative change in weekly frequency of moderate to severe VMS, LS adjusted mean (week 12): −0.1826
Differences with placebo (including ineffective doses 2.5 mg and 5 mg), relative change in weekly frequency of moderate to severe VMS, p_value (week 12): 0.00099
Relative change (% from baseline) in weekly frequency of moderate to severe VMS, mean (15 mg, Week 12): −84%
Relative change (% from baseline) in weekly frequency of moderate to severe VMS, mean (15 mg, week 0): 0%
Relative change (% from baseline) in weekly frequency of moderate to severe VMS, mean (15 mg, week 1): −22%
Relative change (% from baseline) in weekly frequency of moderate to severe VMS, mean (15 mg, week 2): −46%
Relative change (% from baseline) in weekly frequency of moderate to severe VMS, mean (15 mg, week 3): −57%
Relative change (% from baseline) in weekly frequency of moderate to severe VMS, mean (15 mg, week 4): −67%
Relative change in weekly frequency of moderate to severe VMS, LS adjusted mean (15 mg, week 4): −0.6475
Relative change (% from baseline) in weekly frequency of moderate to severe VMS, mean (15 mg, week 5): −72%
Relative change (% from baseline) in weekly frequency of moderate to severe VMS, mean (15 mg, week 6): −76%
Relative change (% from baseline) in weekly frequency of moderate to severe VMS, mean (15 mg, week 7): −79%
Relative change (% from baseline) in weekly frequency of moderate to severe VMS, mean (15 mg, week 8): −79%
Relative change (% from baseline) in weekly frequency of moderate to severe VMS, mean (15 mg, week 9): −81%
Relative change (% from baseline) in weekly frequency of moderate to severe VMS, mean (15 mg, week 10): −80%
Relative change (% from baseline) in weekly frequency of moderate to severe VMS, mean (15 mg, week 11): −82%
Relative change in weekly frequency of moderate to severe VMS, LS adjusted mean (15 mg, week 12): −0.8006
Minimal Effective Dose for the alleviation of VMS (perimenopausal and postmenopausal women): about 15 mg daily
Efficacy on vasomotor parameters (two lowest doses tested (2.5 mg per day and 5 mg per day)): did not show efficacy
Covariate significance, covariate trt1, p_value, relative change in weekly frequency of moderate to severe VMS (week 4): 0.0039
Covariate significance, covariate trt1, p_value, relative change in weekly frequency of moderate to severe VMS (week 12): 0.0017
